The experiment has as its system Rattus norvegicus. Description: Ability to protect against glutamate-induced convulsion in rat upon i.p. administration. The class given is functional.
The mark [1] stands for this setting: Rattus norvegicus, ip, read-out: ED50.

This is an account of results in ChEMBL document CHEMBL1150020, “Optical isomers of RP 64406: New potent antiglutamate agents” (1993).

What is called ED50 is the dose that gives a 50% effect, or the effect in half of the subjects. Regarding `C[S+]([O-])CCn1c(=N)sc2cc(OC(F)(F)F)ccc21` (single isomer, unassigned; (-)), the ED50 under setting [1] is 1.6 mg/kg.

On to `CSCCn1c(=N)sc2cc(OC(F)(F)F)ccc21`, for which the ED50 under setting [1] was determined as 1 mg/kg.

In the case of `C[S+]([O-])CCn1c(=N)sc2cc(OC(F)(F)F)ccc21` (stereo in doubt; 3), the ED50 is 1.1 mg/kg.

Consider `Nc1nc2ccc(OC(F)(F)F)cc2s1` [RILUZOLE], for which, under setting [1], the ED50 came to 3.2 mg/kg.

Molecule `C[S+]([O-])CCn1c(=N)sc2cc(OC(F)(F)F)ccc21` (single isomer, unassigned; (+)) gave a median effective dose (ED50) of 1 mg/kg.
